# Results taken from patent US20160097044A1, “Antimicrobial Enzyme Fusions Reduce Resistance and Kill Intracellular Staphylococcus aureus” (The United States of America, as Represented by the …, priority 2014, published 2016).
# Columns and labels:
# [1] = test system: intracellular S. aureus Newbould 305 in bovine mammary epithelial cell line (MAC-T); test: Intracellular S. aureus eradication assay in MAC-T cells; format: cell-based; conditions: 25 μg in 1 ml DMEM, 2.5 h
# From the text: FIGS. 5a-5e depict peptidoglycan hydrolase-protein transduction domain (PGH-PTD) eradication of intracellular S. aureus in cultured cells. Cultured cells were infected, treated with gentamicin to kill extracellular S. aureus, and then treated with the peptidoglycan hydrolases indicated. All results are standardized to the gentamicin (GENT) only control. Nomenclature of the peptidoglycan hydrolase constructs is as in FIG. 1. Asterisks indicate statistical significance detected with single factor ANOVA (α=0.05) with paired t-test posthoc analyses α=0.05 adjusted with Sidák correction for multiple comparisons (for all cases p<0.01). […] Error bars represent SEM. […] Yellow staining in the combined panel represents intracellular co-localization (in a single plane as determined by z-stack analysis) of both S. aureus and K-L-PTD1 (blue arrow). […]
# Three similar intracellular S. aureus eradication assays from three different labs were optimized for (A) a cultured bovine mammary epithelial cell line (MAC-T, Nexia Biotechnologies, Quebec, Canada; Almeida, supra), (B) primary C57BL/6 mouse-derived osteoblasts (mOBs) (McCall et al. 2008. J. Bone Miner. Res. 23: 30-40) or (C) human brain microvascular endothelial cells (hBMEC; Stins, supra). […] The cell lysate was subjected to serial dilution plating, and the resultant CFUs were counted and normalized to the gentamicin control for each assay. […]
# S. aureus = test: Murine model of staphylococcal osteomyelitis (femur); format: in vivo, C57BL/6J mice; conditions: 5 mg/kg i.m. at site of infection, twice in 24 h, N=6
# Description: Neonatal mouse whole calvaria were treated for 4 hours with chimeric peptidoglycan hydrolases or buffer alone, 24 hours post inoculation with GFP-expressing S. aureus. Calvaria were embedded in freeze media, sectioned, and subjected to fluorescence imaging. The image shown is a representative figure for triplicate sections of three separate calvaria. FIG. 8b depicts fluorescence intensity from these sections measured in ImageJ and defined as arbitrary fluorescence standardized to the untreated control. Error bars represent SEM of four replicate experiments. FIG. 8c depicts ex-vivo intracellular S. aureus eradication. Infected calvaria were homogenized and CFU were counted post treatment. Error bars represent SEM. FIG. 8d depicts a murine model of staphylococcal osteomyelitis. C57BL/6J mice were anesthetized and their femurs were surgically exposed. […] The femurs were removed, homogenized, and plated to quantify the bacterial load. […] Asterisks represent statistical significance as determined by one-way ANOVA followed by Tukey's posthoc test.
# We utilized a previously described (Marriott, supra) murine model of staphylococcal osteomyelitis that reproduces the clinical and gross pathological phases of inflammatory bone diseases, such as human post-traumatic osteomyelitis. […] Asterisks represent statistical significance as determined by one-way ANOVA followed by Tukey's posthoc test.
substance,measurement,setting,value
"K-L: both LysK lytic domains fused to the N-terminus of lysostaphin; SEQ ID NO:5, protein SEQ ID NO:6",intracellular S. aureus CFUs relative to gentamicin only control,[1],reduced the intracellular bacteria recovered
same,bacterial load in femur compared to no treatment,S. aureus,significantly reduced bacterial load as compared to no treatment
